According to publication PMC12136037, “Type II kinase inhibitors that target Parkinson’s disease–associated LRRK2” (Science Advances, 2025):
Where “and” joins values, the source holds several entries; their conditions need not be identical. Equal values may be shown once.

Target: T1, LRRK2^RCKW (Homo sapiens, UniProt Q5S007)
T1 construct: LRRK2 R1327 to E2527; His6-Z-tag (TEV cleavable) (N, cleaved yes); host or cells: Sf9 insect cells (baculovirus)
T1 sequence (Q5S007 1327-2527): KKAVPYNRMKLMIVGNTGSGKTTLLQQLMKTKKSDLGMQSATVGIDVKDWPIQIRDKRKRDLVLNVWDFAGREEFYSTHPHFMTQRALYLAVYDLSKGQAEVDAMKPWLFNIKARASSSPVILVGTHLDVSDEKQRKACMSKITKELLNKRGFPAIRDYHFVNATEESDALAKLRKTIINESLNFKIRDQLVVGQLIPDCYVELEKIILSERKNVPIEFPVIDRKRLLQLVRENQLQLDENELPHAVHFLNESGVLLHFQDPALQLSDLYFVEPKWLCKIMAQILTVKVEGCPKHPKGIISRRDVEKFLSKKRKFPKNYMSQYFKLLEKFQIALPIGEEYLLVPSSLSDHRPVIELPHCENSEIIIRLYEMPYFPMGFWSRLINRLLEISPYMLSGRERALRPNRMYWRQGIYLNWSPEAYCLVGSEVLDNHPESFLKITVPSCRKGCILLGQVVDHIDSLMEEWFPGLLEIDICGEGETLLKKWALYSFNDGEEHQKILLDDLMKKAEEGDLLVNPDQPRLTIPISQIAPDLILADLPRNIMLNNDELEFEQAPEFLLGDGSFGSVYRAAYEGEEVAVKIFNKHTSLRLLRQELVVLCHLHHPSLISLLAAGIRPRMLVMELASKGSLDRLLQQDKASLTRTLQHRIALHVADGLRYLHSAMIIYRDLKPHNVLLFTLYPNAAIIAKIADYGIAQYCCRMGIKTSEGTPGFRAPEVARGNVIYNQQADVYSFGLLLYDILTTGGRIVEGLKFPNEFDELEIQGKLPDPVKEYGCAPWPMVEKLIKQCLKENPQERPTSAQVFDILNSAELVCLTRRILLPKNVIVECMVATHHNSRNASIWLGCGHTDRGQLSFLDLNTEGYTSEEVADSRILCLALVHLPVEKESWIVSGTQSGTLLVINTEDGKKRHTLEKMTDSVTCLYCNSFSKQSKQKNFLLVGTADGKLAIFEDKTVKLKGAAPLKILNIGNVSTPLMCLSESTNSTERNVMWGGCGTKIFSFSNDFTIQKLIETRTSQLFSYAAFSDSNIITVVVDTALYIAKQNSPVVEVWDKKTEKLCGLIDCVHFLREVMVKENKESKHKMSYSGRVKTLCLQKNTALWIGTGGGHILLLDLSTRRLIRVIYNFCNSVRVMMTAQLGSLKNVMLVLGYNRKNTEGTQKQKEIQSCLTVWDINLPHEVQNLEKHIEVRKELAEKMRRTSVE
Test: Single-molecule in vitro kinesin motility assay (TIRF) in the presence of LRRK2^RCKW
Type: biochemical
Settings: for Raw data per microtubule (Figure 6c/6e, kinesin motility): individual microtubule values; for Mean each experiment (Figure 6c/6e raw data, kinesin motility): mean of each independent experiment; for rescue of kinesin motility in the presence of LRRK2^RCKW: MLi-2 5 μM, Ponatinib, RN277, RN341 10 μM
Experimental: The excitation and emission paths were filtered using appropriate single band-pass filter cubes (Chroma). […] Illumination and image acquisition was controlled by NIS Elements Advanced Research software (Nikon; www.microscope.healthcare.nikon.com/products/software/nis-elements/nis-elements-advanced-research, RRID:SCR_014329).
Single-molecule total internal reflection fluorescence (TIRF) motility experiments were performed in flow chambers using the microscopy setup described above. Flow chambers were made by adhering 1^1/2 thickness cover glass (Corning) to a SuperFrost Plus microscope slide (Electron Microscopy Sciences) with double sided tape. Before flow chamber assembly, cover glass was washed in 1 M HCl at 60°C for 1 hour and sonicated in 100% ethanol for 10 min to reduce nonspecific binding. […] In brief, flow chambers were functionalized by incubation with biotin-BSA (1 mg/ml; Sigma-Aldrich) for 3 min, followed by streptavidin (0.5 mg/ml) for a further 3 min. Taxol-stabilized microtubules were diluted 1:100 in motility assay buffer [30 mM Hepes (pH 7.4), 50 mM potassium acetate, 2 mM magnesium acetate, 1 mM EGTA, 10% glycerol, 1 mM DTT, and 20 μM Taxol] and incubated with the flow chamber for 3 min. Following incubation, the flow chambers with adhered microtubules were washed three times with LRRK2 buffer [20 mM Hepes (pH 7.4), 80 mM NaCl, 0.5 mM TCEP, 5% glycerol, 2.5 mM MgCl2, and 20 μM GDP] before incubation for 5 min with either LRRK2 buffer with DMSO or specified kinase inhibitors (0 nM LRRK2^RCKW) or LRRK2 buffer containing LRRK2^RCKW and DMSO or kinase inhibitors as indicated. In all cases, DMSO or the indicated kinase inhibitors were incubated with LRRK2 buffer in the presence or absence of LRRK2^RCKW for 10 min before addition and incubation within the flow chambers.
Data were blinded before analysis. Kymographs were generated from motility movies and quantified for percent motility using ImageJ V.2.14.0 as previously described ([22], [63]). Processive, diffusive, and nonmotile events were manually annotated for calculation of the percentage of processive events per microtubule. […] Single-molecule movements with multiple behaviors were counted as multiple events. For percentage motility per microtubule measurements, processive events were divided by total events (nonmotile, diffuse, and processive) per kymograph.
For statistical analysis, brightness and contrast were adjusted in ImageJ for all motility movies and kymographs. Statistical analyses were performed in GraphPad Prism 10 (www.graphpad.com/, RRID:SCR_002798). Specific statistical analysis descriptors, n values, and P values can be found in the corresponding figure legends. All TIRF experiments were analyzed from three independent technical replicates.

| Mean each experiment (Figure 6c/6e raw data, kinesin motility) (0nM RCKW, listed as RN277) | Mean each experiment (Figure 6c/6e raw data, kinesin motility) (100nM RCKW, listed as RN277) | Structure (SMILES) | Raw data per microtubule (Figure 6c/6e, kinesin motility) (0nM RCKW, listed as RN277) | Raw data per microtubule (Figure 6c/6e, kinesin motility) (100nM RCKW, listed as RN277) | rescue of kinesin motility in the presence of LRRK2^RCKW | Raw data per microtubule (Figure 6c/6e, kinesin motility) (0nM RCKW, listed as RN341) | Mean each experiment (Figure 6c/6e raw data, kinesin motility) (0nM RCKW, listed as RN341) | Raw data per microtubule (Figure 6c/6e, kinesin motility) (100nM RCKW, listed as RN341) | Mean each experiment (Figure 6c/6e raw data, kinesin motility) (100nM RCKW, listed as RN341) | Raw data per microtubule (Figure 6c/6e, kinesin motility) (0nM RCKW) | Mean each experiment (Figure 6c/6e raw data, kinesin motility) (0nM RCKW) | Raw data per microtubule (Figure 6c/6e, kinesin motility) (100nM RCKW) | Mean each experiment (Figure 6c/6e raw data, kinesin motility) (100nM RCKW) |
| --- | --- | --- | --- | --- | --- | --- | --- | --- | --- | --- | --- | --- | --- |
| 80.5039 and 86.1765 and 85.4944 | 80.6738 and 80.7819 and 94.7927 | Cc1ccc(-n2nc(C(C)(C)C)cc2NC(=O)Nc2cccc(-c3c[nH]c4nc(Cl)nc(N5CCOCC5)c34)c2)cc1 [Compound 30] | 85.8824 and 78.125 and 82.8829 and 82.3529 and 90 and 85.1064 | 94.0299 and 83.3333 and 78.0142 and 83.1325 and 78.4314 and 95.5556 | rescued kinesin motility |  |  |  |  |  |  |  |  |
|  |  | CCSc1nc(NC)c2c(-c3cccc(NC(=O)Nc4cc(C(C)(C)C)nn4-c4ccc(C)cc4)c3)c[nH]c2n1 [Compound 32] |  |  | rescued kinesin motility | 77.4648 and 83.4483 and 76.4045 and 86.4865 and 75.9259 and 86.2385 | 79.9264 and 81.2062 and 81.8517 | 76.0563 and 76.9912 and 82.5688 and 91.0891 and 75.8621 and 85.9155 | 79.78 and 83.4756 and 80.9859 |  |  |  |  |
|  |  | Cc1ccc(C(=O)Nc2ccc(CN3CCN(C)CC3)c(C(F)(F)F)c2)cc1C#Cc1cnc2cccnn12 [Ponatinib, reference compound] |  |  | rescued kinesin motility |  |  |  |  | 83.3333 and 79.7203 and 85.1562 and 84.9462 and 85.9649 and 81.3725 | 82.4383 and 85.4556 and 82.3529 | 85.8491 and 82.7225 and 82.5758 and 84.8485 and 75 and 80.5556 | 82.6491 and 79.9242 and 83.2023 |
